Assays:
SOD [1] = experiment: SOD activity of brain tissues from SAMP8 mice; assay type: in vivo; details: 35 days; for SOD activity in the hippocampus: untreated SAMP8 279.4±65.7, P<0.05
Procedure: (§1) The biochemical assays were conducted later (in 24 h) after behavioral testing. Eight rats in each group were anesthetized with ether and sacrificed. The brains were quickly removed and cleaned with ice-cold saline. Then the parietal cortex and hippocampus were isolated. For biochemical analysis, the tissues were weighed and homogenized in ice-cold saline with the proportion of 1:9 (w/v). Homogenization (IKA, Germany) was carried out for 2 min in an ice bath. After the homogenates were centrifuged at 2,000×g for 10 min at 4° C. (Sigma, Germany), the supernatant was used for analytical procedures. The levels of choline acetyltransferase (ChAT) SOD, and MDA activities were determined with commercial colorimetric assay kits (Nanjing Jiancheng Bioengineering Institute, China). The content of protein in the supernatant was determined by Bradford method using BSA as standard.
(§2) SAMP8 were divided into three experimental groups randomly: one vehicle control group, and two dl-PHPB-treated groups (50, and 160 mg/kg). Drugs and vehicle were administered orally to SAMP8 mice for 35 days (one time/each day). The spatial learning and memory abilities of SAMP8 mice were detected by Morris water maze and DTT-2 jumping apparatus in 31-35 days. The testing was commenced at 40 min after drugs treated. The biochemical and pathology assays conducted later (in 24 h) after behavioral testing.
(§3) The methods as described previously.

[2] = test system: cortex and hippocampus neurons of 2-VO rats; experiment: HE staining, neuronal morphology in 2-VO rats; assay type: in vivo, rat; details: 21 days
Procedure: Four rats in each group were anesthetized with sodium pentobarbital (100 mg/kg, intraperitoneal injection), and perfused transcardially with cold saline, followed by 300 ml of 4% paraformaldehyde in 0.01 M phosphate buffer (pH 7.4). After these procedures, the brains were removed and stored in the 0.01 M phosphate buffer (pH 7.4) with 4% paraformaldehyde and 30% sucrose at 4° C. until fully equilibrated. Then they were postfixed at 4° C., dehydrated and embedded in paraffin blocks. Coronal sections of 8 μm were stained with hematoxylin-eosin and Klüver-Barrera.
HE staining in the cytoplasm and nucleus in different colors, you can clearly see the general shape of the cells. […] Above that, dl-PHPB could protect and care the damage of cortex and hippocampus neurons caused by chronic cerebral hypoperfusion.

ChAT [3] = experiment: ChAT activity of brain tissues from SAMP8 mice; assay type: in vivo
Procedure: as §1
as §2, with “testing. […]” for “testing.”

AChE = AChE activity of hippocampus from SAMP8 mice; assay type: in vivo; details: treatment up to 35 days, tendency only
Procedure: as §2, §3

GFAP = GFAP immunohistochemistry, activated astrocytes of 2-VO rats; assay type: in vivo, rat
Procedure: The method for tissue fixation was described above. Serial coronal sections (40 μm) of the brains were cut through the dorsal hippocampus on a freezing microtome and collected in 6-well plates containing 0.01 M PBS. The detection of GFAP and BDNF immunoreactivity was performed using a conventional avidin-biotin-immunoperoxidease technique.
For quantitative analysis, one from every five samples in a continuous series of hippocampal or cortical tissue sections was taken, and was processed immunohistochemically. Thus, three slides were taken from each rat, and were read under an objective (×1.6) microscope. The total area of positively stained neurons was counted with Image-pro Plus 5.0 software.
Cerebral damage caused by hypoperfusion may be the basis for spatial learning and memory impairment, including earliest white matter damage, accompanied by an increase of astrocytes and microglia activation. Glial fibrillary acidic protein (GFAP) immunohistochemical staining can be used to label the activated astrocytes. 2-3 photos were taken from each selected slices in the same regions. The number of the GFAP positive astrocytes was calculated as the average value of the region. Four anatomical regions were selected to observe: the cortex, hippocampus, corpus callosum and optic tract.

ChAT [4] = experiment: ChAT activity of brain tissues from permanent 2-VO rats; assay type: in vivo, rat; details: for activity of ChAT in hippocampus: 21 days
Procedure: (§4) In 10 days after onset of 2-VO, drugs and vehicle were administered orally to rats for 21 days (one time/each day). The spatial learning and memory capability of rats were detected by Morris water maze in the 25-30 days after operation. The Morris water test was commenced at 40 min after drugs treated. The biochemical and pathology assays were conducted later (in 24 h) after behavioral tests.
as §1

SOD [5] = experiment: SOD activity of brain tissues from permanent 2-VO rats; assay type: in vivo, rat; details: for SOD activity in cortex: 21 days
Procedure: as §4, §1

ChAT [6] = experiment: ChAT activity of brain tissues from Aβ(25-35)-induced dementia rats; assay type: in vivo, Male Wistar rats; details: Aβ(25-35) rats, 2 weeks
Procedure: as §1
Rats were divided into four experimental groups randomly (10 rats/each group): one sham-operated group, one vehicle control group, and two dl-PHPB-treated groups (39, and 129 mg/kg). At 1 days after operation, drugs and vehicle were administered orally to rats for 14 days (one time/each day). The spatial learning and memory abilities of rats were detected by Morris water maze in the 9-12 days after operation. The testing of Morris water was commenced at 40 min after drugs treated. […]

SAMP8 mice = experiment: Water maze test (blind sides) in SAMP8 mice; assay type: in vivo
Procedure: as §2
The water maze consisted of square black opaque plastic box (80 cm×50 cm×20 cm), of which four blind-side and a terminal stage. When a black plastic sheet (15 cm×20 cm) was placed in different locations, there were different the starting points and different number of blind side. The water maze filled with water at 25±1° C. to a depth 12 cm. Mice can be placed in different starting point, making experience with different number of blind side to the end. The number of errors into the blind side and the time to reach the end platform (escape latency) was recorded.
Each mouse was permitted to stay there for 5 s and place in the pool, allowed 3 min to find the end platform. The escape latency (time to reach the platform) was used to assess acquisition of the water maze task. Sessions was repeated for 4 consecutive days.

CCCCC(O)c1ccccc1C(=O)[O-].[K+] (racemic) [dl-PHPB, Potassium 2-(1-Hydroxypentyl)-benzoate]
SOD activity in the hippocampus (SOD [1]; 50 mg/kg oral): 156.2±7.8 U/mg protein | SOD activity in the hippocampus (SOD [1]; 160 mg/kg oral): 158.7±11.4 U/mg protein | SOD activity in the cortex (SOD [1]; cortex): did not significantly improve SOD activity | neuronal morphology, HE staining ([2]; dl-PHPB 13 mg/kg): only minor improve the abnormal shape of cortical neurons | neuronal morphology, HE staining ([2]; dl-PHPB 39 mg/kg): significantly improve the cortex, hippocampus area CA1 and CA3 neurons form | neuronal morphology, HE staining ([2]; dl-PHPB 129 mg/kg): improve the cortex and hippocampus CA1 area neuronal morphologic abnormalities | ChAT activity in the hippocampus (ChAT [3]; 35 days, dose-dependent, P<0.05): significantly increased ChAT activity | ChAT activity in the cortex (ChAT [3]; cortex, data not shown): did not significantly improve ChAT activity | AChE activity in the hippocampus (AChE): might decrease AChE activity | GFAP-positive cells in the hippocampus (GFAP; administration of 21 days, P<0.05 or P<0.01): significantly less than in the vehicle group | GFAP-positive cells in the cortex (GFAP; administration of 21 days, in particular dl-PHPB 39 mg/kg (P<0.01)): significantly less than in the vehicle group | GFAP-positive cells in the optic tract (GFAP; dl-PHPB 39 mg/kg, 21 days): significantly less than the vehicle group | GFAP-positive cells in the hippocampus (GFAP; dl-PHPB 39 mg/kg, 21 days, P<0.01): most significant effect | GFAP positive cells in the corpus callosum (GFAP; dl-PHPB 39 mg/kg, P<0.05): significantly decreased level of GFAP positive cells | GFAP-positive cells in the optic tract (GFAP; dl-PHPB 129 mg/kg, 21 days): significantly less than the vehicle group | GFAP-positive cells in the hippocampus (GFAP; dl-PHPB 129 mg/kg, 21 days, P<0.01): most significant effect | ChAT activity in cortex (ChAT [4]; cortex, data not shown): had no effect | activity of ChAT in hippocampus (ChAT [4]; dl-PHPB 13 mg/kg): did not show significant effects | activity of ChAT in hippocampus (ChAT [4]; dl-PHPB 39 mg/kg): did not show significant effects | activity of ChAT in hippocampus (ChAT [4]; dl-PHPB 129 mg/kg, P<0.05): significantly increased the activity of ChAT | SOD activity in cortex (SOD [5]; dl-PHPB 13 mg/kg): significantly alleviated the increase of SOD activity | SOD activity in cortex (SOD [5]; dl-PHPB 39 mg/kg): significantly alleviated the increase of SOD activity | SOD activity in hippocampus (SOD [5]; hippocampus, doses not given): no significant effects | cortical ChAT activity (ChAT [6]; 39 mg/kg, P<0.05): significantly increased the ChAT activity | cortical ChAT activity (ChAT [6]; 129 mg/kg): strong trend | number of errors into the blind-side (SAMP8 mice; 50 mg/kg oral, fifth test, vehicle 6.1±1.1, P<0.05): 3.1±0.9 | escape latency time (SAMP8 mice; 50 mg/kg, last test, P<0.01 vs vehicle): significantly shorten the escape latency time | number of errors into the blind-side (SAMP8 mice; 160 mg/kg oral, fifth test, vehicle 6.1±1.1, P<0.05): 2.7±0.3 | escape latency time (SAMP8 mice; 160 mg/kg, fourth training, P<0.05): significantly shortened the escape latency time | escape latency time (SAMP8 mice; 160 mg/kg, last test, P<0.01 vs vehicle): significantly shorten the escape latency time | escape latency time (SAMP8 mice; first and second trainings, each group): no significant difference | number of errors into the blind-side (SAMP8 mice; first three trainings, vs vehicle): no significant difference | number of errors into the blind-side (SAMP8 mice; fourth training, vs vehicle, dose not specified): significantly decreased the number of errors | escape latency time (SAMP8 mice; third training): tendency of the shorter escape latency
